Results as given in patent US6355799B1, “Substituted benzene compounds, process for their preparation, and herbicidal and defoliant compositions containing them” (ISK Americas Incorporated, priority 1997, dated 2002).

Key:
Assay type in all cases: in vivo
[1] = tested on: redroot pigweed (Amaranthus retroflexus, AMARE); test: Pre-emerge test, greenhouse herbicide activity screening; details: phytotoxicity rating 0-100, 14 days after application
How it was run: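 Visual ratings on a 0-100 scale (0 no damage, 100 all plants dead) were taken at 14 days after treatment. Rates of 15-1000 g ai/ha in acetone, 187 l/ha, were sprayed onto soil one day after planting (pre-emerge) or onto 2-3 leaf plants with 0.25% v/v surfactant (post-emerge).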

[2] = tested on: barnyardgrass (Echinochloa crus-galli, ECHCG); test: as above; details: phytotoxicity rating 0-100, 14 days after application
Excerpt: (§1) A standard greenhouse herbicide activity screening system was used to evaluate the herbicidal efficacy and crop safety of these test compounds. Seven broadleaf weed species including redroot pigweed (Amaranthus retroflexus, AMARE, velvetleaf (Abutilon theophrasti, ABUTH), sicklepod (Cassia obtusifolia, CASOB), ivyleaf morningglory (Ipomoea hederacea, IPOHE), lambsquarters (Chenopodium album, CHEAL), common ragweed (Ambrosia artemisizfolia L., AMBEL), and cocklebur (Xanthium strumarium, XANST) were used as test species. Four grass weed species including green foxtail (Setaria viridis, SETVI), barnyardgrass (Echinochloa crus-galli, ECHCG), johnsongrass (Sorghum halepense, SORHA), and large crabgrass (Digitaria sanguinalis, DIGSA) were also used. In addition, three crop species, field corn (Zea mays L., var. Dekalb 535, CORN), soybean (Glycine max L., var. Pella 86, SOY), and is upland rice (Oryza sp., var. Tebonnet, RICE) were included.
(§2) All plants were grown in 10 cm square plastic pots which were filled with a sandy loam soil mix. For pre-emerge tests, seeds were planted one day prior to application of the test compounds. For post-emerge tests, seeds were planted 8-21 days prior to the test to allow emergence and good foliage development prior to application of the test substances. At the time of the post-emerge application, plants of all species were usually at the 2-3 leaf stage of development.
(§3) All test compounds Were dissolved in acetone and applied to the test units in a volume of 187 l /ha. Test materials were applied at rates ranging from 15 g ai/ha to 1000 g ai/ha using a track sprayer equipped with a TJ8001E even flow flat fan spray nozzle. Plants were arranged on a shelf so that the top of the canopy (post-emerge) or top of the soil surface (pre-emerge) was 40-45 cm below the nozzle. Pressurized air was used to force the test solution through the nozzle as it was mechanically advanced (via electrically driven chain drive) over the top of all test plants/pots. This application simulates a typical commercial field herbicide application.
(§4) In the post-emerge test, a commercial non-ionic surfactant was also included (0.25% v/v) to enhance wetting of the leaf surfaces of target plants. Immediately after application, test units of the pre-emerge applications were watered at the soil surface to incorporate the test materials. Subsequently, these test units were bottom-watered. Post-emerge test units were always bottom-watered.
(§5) At 14 days after application of the test materials, phytotoxicity ratings were recorded. A rating scale of 0-100 was used as previously described in Research Methods in Weed Science, 2nd edition, B. Truelove, Ed., Southern Weed Science Society, Auburn University, Auburn, Ala. 1977. Briefly, “0” corresponds to no damage and “100” corresponds to complete death of all plants in the test unit. This scale was used both to determine efficacy against weed species and damage to crop species. Herbicide activity data for various compounds of this invention, which are shown by compound No. in Tables 1-8, are shown in Tables 11 and 12.

[3] = tested on: green foxtail (Setaria viridis, SETVI); test: as above; details: phytotoxicity rating 0-100, 14 days after application
Excerpt: as §1, §2, §3, §4, §5

[4] = tested on: ivyleaf morningglory (Ipomoea hederacea, IPOHE); test: as above; details: phytotoxicity rating 0-100, 14 days after application
Excerpt: as §1, §2, §3, §4, §5

[5] = tested on: lambsquarters (Chenopodium album, CHEAL); test: as above; details: phytotoxicity rating 0-100, 14 days after application
Excerpt: as §1, §2, §3, §4, §5

[6] = tested on: large crabgrass (Digitaria sanguinalis, DIGSA); test: as above; details: phytotoxicity rating 0-100, 14 days after application
Excerpt: as §1, §2, §3, §4, §5

[7] = tested on: sicklepod (Cassia obtusifolia, CASOB); test: as above; details: phytotoxicity rating 0-100, 14 days after application
Excerpt: as §1, §2, §3, §4, §5

[8] = tested on: velvetleaf (Abutilon theophrasti, ABUTH); test: as above; details: phytotoxicity rating 0-100, 14 days after application
Excerpt: as §1, §2, §3, §4, §5

[9] = tested on: field corn (Zea mays L., var. Dekalb 535, CORN); test: Pre-emerge test, crop safety; details: crop damage rating 0-100, 14 days after application
How it was run: (§6)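 Plants grown in 10 cm pots of sandy loam mix received acetone-dissolved compounds through a moving flat-fan nozzle. Doses ranged from 15 to 1000 g ai/ha. Pre-emerge pots were seeded one day earlier, post-emerge pots 8–21 days earlier. Fourteen days on, each pot was graded 0–100 for damage.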

[10] = tested on: upland rice (Oryza sp., var. Tebonnet, RICE); test: Pre-emerge test, crop safety; details: crop damage rating 0-100, 14 days after application
How it was run: as §6

[11] = tested on: barnyardgrass (Echinochloa crus-galli, ECHCG); test: Post-emerge test, greenhouse herbicide activity screening; details: post-emerge, 14 days after application, rating scale 0-100
Excerpt: as §1, §2, §3, §4, §5

[12] = tested on: green foxtail (Setaria viridis, SETVI); test: as above; details: post-emerge, 14 days after application, rating scale 0-100
Excerpt: as §1, §2, §3, §4, §5

[13] = tested on: ivyleaf morningglory (Ipomoea hederacea, IPOHE); test: as above; details: post-emerge, 14 days after application, rating scale 0-100
Excerpt: as §1, §2, §3, §4, §5

[14] = tested on: lambsquarters (Chenopodium album, CHEAL); test: as above; details: post-emerge, 14 days after application, rating scale 0-100
Excerpt: as §1, §2, §3, §4, §5

[15] = tested on: large crabgrass (Digitaria sanguinalis, DIGSA); test: as above; details: post-emerge, 14 days after application, rating scale 0-100
Excerpt: as §1, §2, §3, §4, §5

[16] = tested on: redroot pigweed (Amaranthus retroflexus, AMARE); test: as above; details: post-emerge, 14 days after application
Excerpt: as §1, §2, §3, §4, §5

[17] = tested on: sicklepod (Cassia obtusifolia, CASOB); test: as above; details: post-emerge, 14 days after application, rating scale 0-100
Excerpt: as §1, §2, §3, §4, §5

[18] = tested on: velvetleaf (Abutilon theophrasti, ABUTH); test: as above; details: post-emerge, 14 days after application, rating scale 0-100
Excerpt: as §1, §2, §3, §4, §5

[19] = tested on: field corn (Zea mays L., var. Dekalb 535, CORN); test: Post-emerge test, crop safety; details: post-emerge, 14 days after application, rating scale 0-100
How it was run: (§7)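 Fourteen days after spraying, crop and weed injury was graded visually from 0, no effect, to 100, every plant dead. Test substances were dissolved in acetone and applied at 15–1000 g ai/ha with a flat-fan nozzle. Application was either pre-emergence, one day after sowing, or post-emergence at the 2–3 leaf stage.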

[20] = tested on: upland rice (Oryza sp., var. Tebonnet, RICE); test: Post-emerge test, crop safety; details: post-emerge, 14 days after application, rating scale 0-100
How it was run: as §7

[21] = 63 g ai/ha, rating scale 0-100 (0 no damage, 100 complete death)
[22] = 250 g ai/ha, rating scale 0-100

Structure (SMILES)	Pre-emerge Herbicidal Activity AMARE ([1]; 63 g ai/ha)	Pre-emerge Herbicidal Activity AMARE ([1]; 250 g ai/ha)	Pre-emerge Herbicidal Activity ECHCG ([2]; 63 g ai/ha)	Pre-emerge Herbicidal Activity ECHCG ([2]; 250 g ai/ha)	Pre-emerge Herbicidal Activity SETVI ([3]; 63 g ai/ha)	Pre-emerge Herbicidal Activity SETVI ([3]; 250 g ai/ha)	Pre-emerge Herbicidal Activity IPOHE ([4]; 63 g ai/ha)	Pre-emerge Herbicidal Activity IPOHE ([4]; 250 g ai/ha)	Pre-emerge Herbicidal Activity CHEAL ([5]; 63 g ai/ha)	Pre-emerge Herbicidal Activity CHEAL ([5]; 250 g ai/ha)	Pre-emerge Herbicidal Activity DIGSA ([6]; 63 g ai/ha)	Pre-emerge Herbicidal Activity DIGSA ([6]; 250 g ai/ha)	Pre-emerge Herbicidal Activity CASOB ([7]; 63 g ai/ha)	Pre-emerge Herbicidal Activity CASOB ([7]; 250 g ai/ha)	Pre-emerge Herbicidal Activity ABUTH ([8]; 63 g ai/ha)	Pre-emerge Herbicidal Activity ABUTH ([8]; 250 g ai/ha)	Pre-emerge Herbicidal Activity CORN ([9]; 63 g ai/ha)	Pre-emerge Herbicidal Activity CORN ([9]; 250 g ai/ha)	Pre-emerge Herbicidal Activity RICE ([10]; 63 g ai/ha)	Pre-emerge Herbicidal Activity RICE ([10]; 250 g ai/ha)	other results
COc1c(Cl)cc(F)c(-n2c(=O)cc(C(F)(F)F)n(C)c2=O)c1NC(=O)OCc1ccc(C(C)C)cc1 [4-42]	30	90	0	40	30	100	0	40	40	100	10	60	0	100	60	100	0	0	0	0	phytotoxicity rating ECHCG ([11]; 63 g ai/ha): 0; phytotoxicity rating ECHCG ([11]; 250 g ai/ha): 10; phytotoxicity rating SETVI ([12]; 63 g ai/ha): 0; phytotoxicity rating SETVI ([12]; 250 g ai/ha): 0; phytotoxicity rating IPOHE ([13]; 63 g ai/ha): 40; phytotoxicity rating IPOHE ([13]; 250 g ai/ha): 30; phytotoxicity rating CHEAL ([14]; 63 g ai/ha): 80; phytotoxicity rating CHEAL ([14]; 250 g ai/ha): 90; phytotoxicity rating DIGSA ([15]; 63 g ai/ha): 0; phytotoxicity rating DIGSA ([15]; 250 g ai/ha): 0; phytotoxicity rating AMARE [16, 21]: 75; phytotoxicity rating AMARE [16, 22]: 100; phytotoxicity rating CASOB ([17]; 63 g ai/ha): 0; phytotoxicity rating CASOB ([17]; 250 g ai/ha): 0; phytotoxicity rating ABUTH ([18]; 63 g ai/ha): 100; phytotoxicity rating ABUTH ([18]; 250 g ai/ha): 100; phytotoxicity rating CORN (crop damage) ([19]; 63 g ai/ha): 0; phytotoxicity rating CORN (crop damage) ([19]; 250 g ai/ha): 0; phytotoxicity rating RICE (crop damage) ([20]; 63 g ai/ha): 0; phytotoxicity rating RICE (crop damage) ([20]; 250 g ai/ha): 0
COc1ccc(COC(=O)Nc2c(OC)c(Cl)cc(F)c2-n2c(=O)cc(C(F)(F)F)n(C)c2=O)cc1 [4-40]	100	100	60	85	100	100	30	90	100	100	100	100	60	90	100	100	0	75	30	70	phytotoxicity rating ECHCG ([11]; 63 g ai/ha): 50; phytotoxicity rating ECHCG ([11]; 250 g ai/ha): 90; phytotoxicity rating SETVI ([12]; 63 g ai/ha): 80; phytotoxicity rating SETVI ([12]; 250 g ai/ha): 90; phytotoxicity rating IPOHE ([13]; 63 g ai/ha): 100; phytotoxicity rating IPOHE ([13]; 250 g ai/ha): 100; phytotoxicity rating CHEAL ([14]; 63 g ai/ha): 100; phytotoxicity rating CHEAL ([14]; 250 g ai/ha): 100; phytotoxicity rating DIGSA ([15]; 63 g ai/ha): 40; phytotoxicity rating DIGSA ([15]; 250 g ai/ha): 90; phytotoxicity rating AMARE [16, 21]: 100; phytotoxicity rating AMARE [16, 22]: 100; phytotoxicity rating CASOB ([17]; 63 g ai/ha): 100; phytotoxicity rating CASOB ([17]; 250 g ai/ha): 100; phytotoxicity rating ABUTH ([18]; 63 g ai/ha): 100; phytotoxicity rating ABUTH ([18]; 250 g ai/ha): 100; phytotoxicity rating CORN (crop damage) ([19]; 63 g ai/ha): 30; phytotoxicity rating CORN (crop damage) ([19]; 250 g ai/ha): 70; phytotoxicity rating RICE (crop damage) ([20]; 63 g ai/ha): 40; phytotoxicity rating RICE (crop damage) ([20]; 250 g ai/ha): 60
